Assay results published in patent US20220298135A1, “5-HETEROARYL-PYRIDIN-2-AMINE COMPOUNDS AS NEUROPEPTIDE FF RECEPTOR ANTAGONISTS” (Domain Therapeutics, priority 2019, published 2022).
Counter-ions that a name gives are not always drawn.

Legend:
[1] = target: T1, human NPFFR1 (hNPFFR1) receptor (Homo sapiens, UniProt Q9GZQ6); assay: Human NPFFR1 evaluation using BRET biosensors (antagonist IC50); type: cell-based; conditions: hNPFFR1 transiently over-expressed in HEK-293 T cells; BRET signal; stimulation by EC80 RFRP-3
T1 construct: expressed in transfected cells; host or cells: HEK-293 T cells, transient co-transfection with polyethylenimine
Procedure: Compounds of the present invention were tested successively for their agonist and antagonist activities on human NPFFR1 (hNPFFR1) receptor transiently over-expressed in HEK-293 T cells. Compounds exert agonist activity if, by themselves in absence of neuropeptide RFRP-3 (also named NPVF) they activate hNPFFR1; and they exert antagonist activity if they decrease the action of RFRP-3 on the receptor.
The assay used to measure compound activity is based on BRET (Bioluminescence Resonance Energy Transfer) biosensors and is designed to monitor the plasma membrane translocation of protein that interacts with specific Ga subunit. The specific effector (luciferase tagged: BRET donor) recruited at the membrane will be in close proximity to a plasma membrane anchor (GFP tagged: BRET acceptor) to induce a BRET signal. Biosensors are described in the patent application WO 2016/041093 A1 (Biosensors for monitoring biomolecule localization and trafficking in cells).
HEK-293 T cells are maintained in Dulbecco's Modified Eagle's Medium supplemented with 10% Foetal Calf Serum, 1% Penicillin/Streptomycin at 37° C./5% CO2.
Cells are co-transfected using polyethylenimine (25 kDa linear) with four DNA plasmids encoding: hNPFFR1, GαoB, a Gi family specific intracellular effector fused to luciferase (BRET donor), a plasma membrane effector fused to GFP (BRET acceptor). After transfection, cells are cultured for 48 h at 37° C./5% CO2.
Receptor activity is detected by changes in BRET signal.
On the day of the assay, cells are detached using trypsin 0.05%, resuspended in assay buffer (1.8 mM CaCl2, 1 mM MgCl2, 2.7 mM KCl, 137 mM NaCl, 0.4 mM NaH2PO4, 5.5 mM D-Glucose, 11.9 mM NaHCO3, 25 mM Hepes) and seeded in 384 well plate at a density of 20,000 cells per well. Then, plates are equilibrated 3.5 hours at 37° C. before adding compounds.
Compounds and luciferase substrate are added to the cells using an automated device (Freedom Evo®, Tecan) and BRET readings are collected on EnVision (PerkinElmer) with specific filters (410 nm BW 80 nm, 515 nm BW 30 nm).
Agonist and antagonist activities of compounds are consecutively evaluated on the same cell plate. Agonist activity is first measured after 10 minutes incubation with compound alone on the cells. Then, cells are stimulated by an EC80 RFRP-3 concentration and luminescence is recorded for additional 10 minutes. EC80 RFRP-3 concentration is the concentration giving 80% of the maximal RFRP-3 response. Agonist or antagonist activities are evaluated in comparison to basal signals evoked by assay buffer or EC80 RFRP-3 alone, respectively.
For IC50 determination, a dose-response test is performed using 20 concentrations (ranging over 6 logs) of each compound. Dose-response curves are fitted using the sigmoidal dose-response (variable slope) analysis in GraphPad Prism software (GraphPad Software) and IC50 of antagonist activity is calculated. Dose-response experiments are performed in duplicate, in two independent experiments.

T1 sequence (Q9GZQ6 whole entry): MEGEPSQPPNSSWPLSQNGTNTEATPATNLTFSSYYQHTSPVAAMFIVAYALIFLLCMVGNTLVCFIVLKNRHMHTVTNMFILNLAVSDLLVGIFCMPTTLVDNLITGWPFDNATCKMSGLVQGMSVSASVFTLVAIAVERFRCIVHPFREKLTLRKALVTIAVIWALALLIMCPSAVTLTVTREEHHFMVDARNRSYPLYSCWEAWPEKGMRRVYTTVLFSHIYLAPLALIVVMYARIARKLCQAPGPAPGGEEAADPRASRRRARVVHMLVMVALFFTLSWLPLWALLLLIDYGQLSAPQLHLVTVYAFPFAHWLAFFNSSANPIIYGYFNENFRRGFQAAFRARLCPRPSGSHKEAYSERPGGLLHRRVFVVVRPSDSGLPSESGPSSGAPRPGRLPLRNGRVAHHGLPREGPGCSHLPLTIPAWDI

melting point [°C] | IC50 [1] [nM] | Structure (SMILES)
100 to 117 | < 100 | CCCc1nc(N)ccc1-c1cccc2ccncc12.Cl [Example 9, 5-(8-Isoquinolyl)-6-propyl-pyridin-2-amine]
126 to 136 | < 100 | CCc1nc(N)ccc1-c1c(F)cc(F)c2cccnc12.Cl [Example 108, 5-(5,7-difluoroquinolin-8-yl)-6-ethylpyridin-2-amine]
110 to 120 | < 100 | CCc1nc(N)ccc1-c1c(F)cc(F)c2cc(F)cnc12.Cl [Example 145, 6-ethyl-5-(3,5,7-trifluoroquinolin-8-yl)pyridin-2-amine]
> 250 | 100 to 1000 | Cl.Nc1ccc(-c2cccc3scnc23)c(N)n1 [Example 30, 3-(1,3-Benzothiazol-4-yl)pyridine-2,6-diamine]
165 to 180 | 100 to 1000 | CCc1nc(N)ccc1-c1ccccc1-c1ccc(OC)nc1 [Example 89, 6-ethyl-5-(2-(6-methoxypyridin-3-yl)phenyl)pyridin-2-amine]
100 to 135 | 100 to 1000 | Cl.Nc1ccc(-c2ccccc2-c2cccnc2)c(N)n1 [Example 45, 3-[2-(3-pyridyl)phenyl]pyridine-2,6-diamine]
90 to 95 | 100 to 1000 | CCc1nc(N)ccc1-c1cccc2ccc(C3(C)CC3)nc12.Cl [Example 120, 6-ethyl-5-(2-(1-methylcyclopropyl)quinolin-8-yl)pyridin-2-amine]
> 250 | 100 to 1000 | CCc1nc(N)ccc1-c1ccccc1-c1cccnc1.Cl [Example 44, 6-Ethyl-5-[2-(3-pyridyl)phenyl]pyridin-2-amine]
120 to 130 | < 100 | CCc1nc(N)ccc1-c1c(F)c(F)cc2cc(F)cnc12.Cl [Example 150, 6-ethyl-5-(3,6,7-trifluoroquinolin-8-yl)pyridin-2-amine]
150 to 190 | < 100 | CCc1nc(N)ccc1-c1c(F)c(F)cc2cccnc12.Cl [Example 111, 5-(6,7-difluoroquinolin-8-yl)-6-ethylpyridin-2-amine]
90 to 130 | < 100 | CCc1nc(N)ccc1-c1c(C)ccc2cccnc12.Cl [Example 93, 6-ethyl-5-(7-methylquinolin-8-yl)pyridin-2-amine]
– | < 100 | CCc1nc(N)ccc1-c1c(F)c(F)cc2cc(Cl)cnc12 [Example 149, 5-(3-chloro-6,7-difluoroquinolin-8-yl)-6-ethylpyridin-2-amine]
– | < 100 | CCc1nc(N)ccc1-c1cccc2ccc(-c3ccccc3)nc12 [Example 116, 6-ethyl-5-(2-phenylquinolin-8-yl)pyridin-2-amine]
– | 100 to 1000 | CCc1nc(N)ccc1-c1cccc2ccoc12 [Example 79, 5-(benzofuran-7-yl)-6-ethylpyridin-2-amine]
– | < 100 | CCc1nc(N)ccc1-c1c(F)cc(F)c2cc(Cl)cnc12 [Example 148, 5-(3-chloro-5,7-difluoroquinolin-8-yl)-6-ethylpyridin-2-amine]
– | < 100 | CCc1nc(N)ccc1-c1c(Cl)ccc2cc(Cl)cnc12 [Example 147, 5-(3,7-dichloroquinolin-8-yl)-6-ethylpyridin-2-amine]
– | < 100 | Nc1ccc(-c2c(F)cc(F)c3cccnc23)c(N)n1 [Example 59, 3-(5,7-difluoroquinolin-8-yl)pyridine-2,6-diamine]
– | 100 to 1000 | CCc1nc(N)ccc1-c1c(C#N)ccc2cccnc12 [Example 153, 8-(6-amino-2-ethylpyridin-3-yl)quinoline-7-carbonitrile]
– | < 100 | Nc1ccc(-c2cccc3cccnc23)c(N)n1 [Example 31, 3-(8-quinolyl)pyridine-2,6-diamine]
– | < 100 | CCc1nc(N)ccc1-c1c(F)ccc2cc(Br)cnc12 [Example 151, 5-(3-bromo-7-fluoroquinolin-8-yl)-6-ethylpyridin-2-amine]
– | < 100 | CCc1nc(N)ccc1-c1c(F)ccc2cc(Cl)cnc12 [Example 146, 5-(3-chloro-7-fluoroquinolin-8-yl)-6-ethylpyridin-2-amine]
103 to 113 | – | CCc1nc(N)ccc1-c1cccc2ccc(C(=O)N(C)C)nc12 (as salt: hydrochloride) [Example 140, 8-(6-amino-2-ethylpyridin-3-yl)-N,N-dimethylquinoline-2-carboxamide]
214 to 229 | – | CCc1nc(N)ccc1-c1c(F)ccc2ccc(N(CC)C(C)C)nc12.Cl
– | 100 to 1000 | CCc1nc(N)ccc1-c1cccc2sccc12 [Example 78, 5-(benzo[b]thiophen-4-yl)-6-ethylpyridin-2-amine]

Continued, compound first:

Structure (SMILES) | melting point [°C] | IC50 [1] [nM]
CCc1nc(N)ccc1-c1cccc2nccn12.Cl [Example 103, 6-ethyl-5-(imidazo[1,2-a]pyridin-5-yl)pyridin-2-amine] | 115 to 155 | > 1000
CCc1nc(N)ccc1-c1cc(F)ccc1-c1ccc(N2CCOCC2)nc1.Cl [Example 83, 6-ethyl-5-(5-fluoro-2-(6-morpholinopyridin-3-yl)phenyl)pyridin-2-amine] | 85 to 100 | 100 to 1000
CCc1nc(N)ccc1-c1c(Cl)ccc2cccnc12 [Example 110, 5-(7-chloroquinolin-8-yl)-6-ethylpyridin-2-amine] | – | < 100
CCOc1ccc2cccc(-c3ccc(N)nc3CC)c2n1.Cl [Example 94, 5-(2-ethoxyquinolin-8-yl)-6-ethylpyridin-2-amine] | 35 to 70 | < 100
CCc1nc(N)ccc1-c1cc(C)cc2cccnc12.Cl [Example 77, 6-ethyl-5-(6-methylquinolin-8-yl)pyridin-2-amine] | 100 to 140 | < 100
CCc1nc(N)ccc1-c1cccc2ccc(-c3cnccc3C)nc12.Cl [Example 127, 6-ethyl-5-(2-(4-methylpyridin-3-yl)quinolin-8-yl)pyridin-2-amine] | 180 to 188 | < 100
CCc1nc(N)ccc1-c1c(Cl)ccc2cc(F)cnc12 [Example 144, 5-(7-chloro-3-fluoroquinolin-8-yl)-6-ethylpyridin-2-amine] | – | < 100
CCc1nc(N)ccc1-c1c(Cl)ccc2ccc(O)nc12 [Example 160, 8-(6-amino-2-ethylpyridin-3-yl)-7-chloroquinolin-2(1H)-one] | – | < 100
CCc1nc(N)ccc1-c1cccc2ccc(-c3cccnc3)nc12 [Example 117, 6-ethyl-5-(2-(pyridin-3-yl)quinolin-8-yl)pyridin-2-amine] | – | < 100
CCc1nc(N)ccc1-c1cccc2ccc(OCCN3CCOCC3)nc12 [Example 130, 6-ethyl-5-(2-(2-morpholinoethoxy)quinolin-8-yl)pyridin-2-amine] | – | 100 to 1000
CCc1nc(N)ccc1-c1cccc2c1N(C)C(=O)CC2 [Example 157, 8-(6-amino-2-ethylpyridin-3-yl)-1-methyl-3,4-dihydroquinolin-2(1H)-one] | – | > 1000
CCc1nc(N)ccc1-c1c(F)ccc2ccc(N(CC)C3CCCCC3)nc12.Cl | 160 to 210 | –
Nc1ccc(-c2c(Cl)ccc3ccc(O)nc23)c(N)n1 [Example 63, 8-(2,6-diaminopyridin-3-yl)-7-chloroquinolin-2-ol] | – | < 100
CCc1nc(N)ccc1-c1cccc2ccc(C(=O)N(C)C)nc12 [Example 140, 8-(6-amino-2-ethylpyridin-3-yl)-N,N-dimethylquinoline-2-carboxamide] | – | 100 to 1000
CCc1nc(N)ccc1-c1cccc2ccc(C(=O)NC3COC3)nc12 [Example 175, 8-(6-amino-2-ethylpyridin-3-yl)-N-(oxetan-3-yl)quinoline-2-carboxamide] | 156 to 162 | –
CCc1nc(N)ccc1-c1cccc2ccc(-c3cncnc3)nc12 [Example 124, 6-ethyl-5-(2-(pyrimidin-5-yl)quinolin-8-yl)pyridin-2-amine] | – | < 100
Nc1ccc(-c2c(F)ccc3cc(Cl)cnc23)c(N)n1 [Example 60, 3-(3-chloro-7-fluoroquinolin-8-yl)pyridine-2,6-diamine] | – | < 100
